The source of these data is US5002948A, “3-[4-[4-substituted-1-piperazinyl]-1-butyl]-1H-2,3-dihydroindoles” (H. Lundbeck A/S, priority 1988, dated 1991).

The experiment has as its target T1, serotonin 5-HT1A receptors (Rattus norvegicus, UniProt P19327).
T1 construct: membranes from rat brain minus cerebellum; from tissue; host or cells: brain minus cerebellum of male Wistar (Mol:Wist) rats, membranes
T1 sequence (P19327 1-422): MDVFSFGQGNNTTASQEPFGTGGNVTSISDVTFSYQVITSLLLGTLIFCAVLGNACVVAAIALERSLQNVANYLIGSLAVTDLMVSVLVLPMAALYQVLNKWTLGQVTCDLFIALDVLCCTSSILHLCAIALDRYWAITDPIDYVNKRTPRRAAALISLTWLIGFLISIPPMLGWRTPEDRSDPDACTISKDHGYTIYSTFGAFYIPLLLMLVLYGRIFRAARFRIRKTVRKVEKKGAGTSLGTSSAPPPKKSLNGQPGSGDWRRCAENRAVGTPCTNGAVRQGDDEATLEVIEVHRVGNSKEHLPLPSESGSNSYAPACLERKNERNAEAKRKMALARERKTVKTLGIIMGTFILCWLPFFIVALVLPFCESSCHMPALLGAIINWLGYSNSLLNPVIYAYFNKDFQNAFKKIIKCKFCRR
Nature of the experiment: Inhibition of 3H-8-OHDPAT binding to serotonin 5-HT1A receptors in rat brain in vitro. The settings on record: 3H-8-OHDPAT 1 nM, rat brain membranes minus cerebellum, 37° C., 15 min; read-out: IC50 (3H 8-OH DPAT binding). The protocol:
INHIBITION OF ^3 H-8-OHDPAT BINDING TO SEROTONIN 5-HT1A RECEPTORS IN A RAT BRAIN IN VITRO
By this method the inhibition by drugs of the binding of ^3 H-8-OHDPAT (1 nM) to serotonin 5-HT1A receptors in membranes from rat brain minus cerebellum is determined in vitro.
Male Wistar (Mol:Wist) rats (125-250 g) are sacrificed and the brain is dissected and weighed. The brain tissue minus cerebellum is homogenized (Ultra Turrax, 20 sec) in 10 ml of ice cold 50 mM Tris buffer pH 8.0 (at 25° C.) containing 120 mM NaCl, 4 mM CaCl2 and 4 mM MgCl2. The homogenate is centrifuged at 20,000 g for 10 min at 4° C. The pellet is homogenized in 10 ml of buffer and incubated at 37° C. for 10 min. The homogenate is centrifuged as above and the pellet is homogenized in 100 vol (w/v) ice cold buffer containing 10 μ M of parglyine.
Incubation tubes kept on ice in triplicate receive 100 μl of drug solution in water (or water for total binding) and 1000 μ l of tissue suspension (final tissue content corresponds to 10 mg original tissue). The binding experiment is initiated by addition of 100 μ l of ^3 H-8-OHDPAT (final concentration 1 nM) and by placing the tubes in a 37° C. water bath. After incubation for 15 min the samples are filtered under vacuum (0-50 mBar) through Whatman GF/F filters ([…]). The tubes are rinsed with 5 ml ice cold 0.9% NaCl which are then poured on the filters. Thereafter, the filters are washed with 2×5 ml 0.9% NaCl. The filters are placed in counting vials and 4 ml of appropriate scintillation fluid (e.g. Picofluor™15) are added. After shaking for 1 h and storage 2 h in the dark the content of radioactivity is determined by liquid scintillation counting. Specific binding is obtained by subtracting the nonspecific binding in the presence of 10 μ M of 5-HT.
For determination of the inhibition of binding five concentrations of drugs covering 3 decades are used.
The IC50 -value is determined as the concentration, at which the binding is 50% of the total binding in control samples minus the nonspecific binding in the presence of 10 μM of 5-HT.
^3 H-8-OHDPAT from Amersham International plc. England. Specific activity approximately 200 Ci/mmol).

For `COc1ccccc1N1CCN(CCCCC2CNc3ccccc32)CC1` (stereo not drawn) [Compound 3a, 3-[4-[4-(2-methoxyphenyl)-1-piperazinyl]-1-butyl]-1H-2,3-dihydroindole], the 50% inhibitory concentration (IC50) – broadly, the concentration that inhibits the measured activity by half – is 14 nM.

Turning to `COc1ccccc1N1CCN(CCCCC2CNc3ccccc32)CC1` (single isomer, unassigned; (+)) [Compound 7a, (+)-3-[4-[4-(2-methoxyphenyl)-1-piperazinyl]-1-butyl]-1H-2,3-dihydroindole], the IC50 is 13 nM.

`COc1ccccc1N1CCN(CCCCC2CNc3ccccc32)CC1` (single isomer, unassigned; (-)) [Compound 7b, (-)-3-[4-[4-(2-methoxyphenyl)-1-piperazinyl]-1-butyl]-1H-2,3-dihydroindole]: the IC50 amounted to 8.6 nM. For `c1ccc2c(c1)NCC2CCCCN1CCN(c2cccc3c2OCCO3)CC1` (stereo not drawn) [Compound 3j, 3-[4-[4-(1,4-benzodioxan-5-yl)-1-piperazinyl]-1-butyl]-1H-2,3-dihydroindole], the IC50 worked out at 3.3 nM. On to `c1ccc2c(c1)NCC2CCCCN1CCN(c2cccc3c2OCC3)CC1` (stereo not drawn) [Compound 3i, 3-[4-[4-(2,3-dihydro-7-benzofuranyl)-1-piperazinyl]-1-butyl]-1H-2,3-dihydroindole], for which the IC50 stood at 9.4 nM. As to `CCOc1ccccc1N1CCN(CCCCC2CNc3ccccc32)CC1` (stereo not drawn) [Compound 3c, 3-[4-[4-(2-ethoxyphenyl)-1-piperazinyl]-1-butyl]-1H-2,3-dihydroindole], the IC50 is 11 nM.
